In ChEMBL document CHEMBL4052689, “Discovery and optimization of 3-(4-aryl/heteroarylsulfonyl)piperazin-1-yl)-6-(piperidin-1-yl)pyridazines as novel, CNS penetrant pan-muscarinic antagonists” (Bioorg Med Chem Lett, 2017):
Active and inactive are the calls of the source. The calls are words filed in the database; no cut-off is given here.

Experiments:
Liver [1] = test: Drug metabolism in human liver microsomes in absence of NADPH by UV and mass spectrometry; assay type: ADME, microsome
Liver [2] = test: Drug metabolism in rat liver microsomes assessed as metabolite F formation in presence of NADPH by UV and mass spectrometry; assay type: ADME, microsome
Plasma [3] = test: Protein binding in human plasma; assay type: ADME, cell-free
Homo sapiens [4] = species on record: Homo sapiens; test: Selectivity index, ratio of IC50 for human recombinant muscarinic M1 receptor to IC50 for human recombinant muscarinic M4 receptor
Liver [5] = test: Drug metabolism in human liver microsomes assessed as metabolite C formation in presence of NADPH by UV and mass spectrometry; assay type: ADME, microsome
[6] = molecular target: Muscarinic acetylcholine receptor M3 (Rattus norvegicus, UniProt P08483); test: (§1) Antagonist activity at rat muscarinic M3 receptor by calcium mobilization assay; assay type: functional
Liver [7] = test: Drug metabolism in human liver microsomes assessed as metabolite B formation in presence of NADPH by UV and mass spectrometry; assay type: ADME, microsome
[8] = molecular target: Muscarinic acetylcholine receptor M1 (Rattus norvegicus) (UniProt P08482); test: Antagonist activity at rat muscarinic M1 receptor assessed as acetylcholine-induced response by calcium mobilization assay; assay type: functional; set-up: scale not given: the % may be the effect or the level left
[9] = molecular target: T1, Muscarinic acetylcholine receptor M3 (Homo sapiens, UniProt P20309); test: Antagonist activity at human recombinant muscarinic M3 receptor expressed in CHO cells co-transfected with Gqi5 in presence of EC80 acetylcholine by calcium mobilization assay; assay type: functional, cell-based
Target sequence in this assay (P20309 whole entry): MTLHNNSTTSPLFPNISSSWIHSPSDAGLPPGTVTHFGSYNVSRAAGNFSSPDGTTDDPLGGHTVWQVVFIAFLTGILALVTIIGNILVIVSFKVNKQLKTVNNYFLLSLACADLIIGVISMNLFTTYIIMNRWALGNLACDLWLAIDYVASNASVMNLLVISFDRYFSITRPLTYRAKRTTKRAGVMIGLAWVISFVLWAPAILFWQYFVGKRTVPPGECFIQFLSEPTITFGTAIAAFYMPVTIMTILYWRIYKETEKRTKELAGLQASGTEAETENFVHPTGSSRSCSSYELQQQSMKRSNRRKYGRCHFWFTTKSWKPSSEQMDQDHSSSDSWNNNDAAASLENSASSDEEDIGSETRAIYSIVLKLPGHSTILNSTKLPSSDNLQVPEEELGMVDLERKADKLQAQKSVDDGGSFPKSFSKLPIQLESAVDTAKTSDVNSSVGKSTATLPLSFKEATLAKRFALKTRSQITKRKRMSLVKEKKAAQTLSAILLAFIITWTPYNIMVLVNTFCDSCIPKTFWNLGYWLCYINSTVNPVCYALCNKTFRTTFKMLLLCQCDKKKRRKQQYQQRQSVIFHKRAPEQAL

[10] = molecular target: Muscarinic acetylcholine receptor M4 (Rattus norvegicus) (UniProt P08485); test: Antagonist activity at rat muscarinic M4 receptor assessed as acetylcholine-induced response by calcium mobilization assay; assay type: functional; set-up: scale not given: the % may be the effect or the level left
[11] = molecular target: Muscarinic acetylcholine receptor M4 (Rattus norvegicus, UniProt P08485); test: (§2) Antagonist activity at rat muscarinic M4 receptor by calcium mobilization assay; assay type: functional
[12] = molecular target: T2, Muscarinic acetylcholine receptor M4 (Homo sapiens, UniProt P08173); test: Antagonist activity at human recombinant muscarinic M4 receptor expressed in CHO cells co-transfected with Gqi5 in presence of EC80 acetylcholine by calcium mobilization assay; assay type: functional, cell-based
T2 sequence (P08173 whole entry): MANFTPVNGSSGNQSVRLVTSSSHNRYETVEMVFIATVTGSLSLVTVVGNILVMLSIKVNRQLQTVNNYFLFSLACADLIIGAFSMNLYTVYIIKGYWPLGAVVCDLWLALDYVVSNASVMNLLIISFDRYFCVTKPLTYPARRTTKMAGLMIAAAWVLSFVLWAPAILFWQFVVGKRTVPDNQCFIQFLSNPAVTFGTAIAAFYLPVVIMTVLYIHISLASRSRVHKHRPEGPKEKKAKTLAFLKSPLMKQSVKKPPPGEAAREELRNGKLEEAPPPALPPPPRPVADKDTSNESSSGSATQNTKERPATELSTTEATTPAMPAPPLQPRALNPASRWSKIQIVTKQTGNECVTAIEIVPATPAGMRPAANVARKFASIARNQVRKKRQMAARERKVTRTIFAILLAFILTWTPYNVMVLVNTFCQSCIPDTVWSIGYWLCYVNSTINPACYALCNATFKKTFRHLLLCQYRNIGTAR

Homo sapiens [13] = species on record: Homo sapiens; test: Selectivity index, ratio of IC50 for human recombinant muscarinic M3 receptor to IC50 for human recombinant muscarinic M4 receptor
[14] = molecular target: Muscarinic acetylcholine receptor M5 (Homo sapiens, UniProt P08912); test: Antagonist activity at human recombinant muscarinic M5 receptor expressed in CHO cells co-transfected with Gqi5 in presence of EC80 acetylcholine by calcium mobilization assay; assay type: functional, cell-based
Homo sapiens [15] = species on record: Homo sapiens; test: Selectivity index, ratio of IC50 for human recombinant muscarinic M5 receptor to IC50 for human recombinant muscarinic M4 receptor
[16] = molecular target: Muscarinic acetylcholine receptor M2 (Rattus norvegicus) (UniProt P10980); test: Antagonist activity at rat muscarinic M2 receptor assessed as acetylcholine-induced response by calcium mobilization assay; assay type: functional; set-up: scale not given: the % may be the effect or the level left
[17] = molecular target: Muscarinic acetylcholine receptor M1 (Homo sapiens) (UniProt P11229); test: Antagonist activity at human recombinant muscarinic M1 receptor expressed in CHO cells co-transfected with Gqi5 assessed as acetylcholine-induced response in presence of EC80 acetylcholine by calcium mobilization assay relative to untreated control; assay type: functional, cell-based; set-up: scale not given: the % may be the effect or the level left
Liver [18] = test: Drug metabolism in human liver microsomes assessed as metabolite A formation in presence of NADPH by UV and mass spectrometry; assay type: ADME, microsome
Liver [19] = test: Drug metabolism in human liver microsomes assessed as metabolite D formation in presence of NADPH by UV and mass spectrometry; assay type: ADME, microsome
[20] = molecular target: Muscarinic acetylcholine receptor M2 and M4 (Homo sapiens) (UniProt P08173+P08172); test: Selectivity index, ratio of IC50 for human recombinant muscarinic M2 receptor to IC50 for human recombinant muscarinic M4 receptor
Liver [21] = test: Drug metabolism in human liver microsomes assessed as metabolite H formation in presence of NADPH by UV and mass spectrometry; assay type: ADME, microsome
[22] = molecular target: Muscarinic acetylcholine receptor M2 (Homo sapiens, UniProt P08172); test: Antagonist activity at human recombinant muscarinic M2 receptor expressed in CHO cells co-transfected with Gqi5 in presence of EC80 acetylcholine by calcium mobilization assay; assay type: functional, cell-based
[23] = molecular target: Muscarinic acetylcholine receptor M5 (Rattus norvegicus) (UniProt P08911); test: Antagonist activity at rat muscarinic M5 receptor assessed as acetylcholine-induced response by calcium mobilization assay; assay type: functional; set-up: Activity: scale not given: the % may be the effect or the level left
[24] = molecular target: Muscarinic acetylcholine receptor M2 (Homo sapiens) (UniProt P08172); test: Antagonist activity at human recombinant muscarinic M2 receptor expressed in CHO cells co-transfected with Gqi5 assessed as acetylcholine-induced response in presence of EC80 acetylcholine by calcium mobilization assay relative to untreated control; assay type: functional, cell-based; set-up: scale not given: the % may be the effect or the level left
Liver [25] = test: Drug metabolism in human liver microsomes assessed as metabolite F formation in presence of NADPH by UV and mass spectrometry; assay type: ADME, microsome
[26] = molecular target: T1, Muscarinic acetylcholine receptor M3; test: Antagonist activity at human recombinant muscarinic M3 receptor expressed in CHO cells assessed as acetylcholine-induced response in presence of EC80 acetylcholine by calcium mobilization assay relative to untreated control; set-up: scale not given: the % may be the effect or the level left
Target sequence in this assay (P20309 whole entry, looked up): as the sequence (P20309 whole entry) above

[27] = molecular target: Muscarinic acetylcholine receptor M2 (Rattus norvegicus, UniProt P10980); test: (§3) Antagonist activity at rat muscarinic M2 receptor by calcium mobilization assay; assay type: functional
[28] = molecular target: Muscarinic acetylcholine receptor M1 (Homo sapiens, UniProt P11229); test: Antagonist activity at human recombinant muscarinic M1 receptor expressed in CHO cells co-transfected with Gqi5 in presence of EC80 acetylcholine by calcium mobilization assay; assay type: functional, cell-based
[29] = molecular target: Muscarinic acetylcholine receptor M5 (Rattus norvegicus, UniProt P08911); test: Antagonist activity at rat muscarinic M5 receptor by calcium mobilization assay; assay type: functional
[30] = molecular target: Muscarinic acetylcholine receptor M3 (Rattus norvegicus) (UniProt P08483); test: Antagonist activity at rat muscarinic M3 receptor assessed as acetylcholine-induced response by calcium mobilization assay; assay type: functional; set-up: scale not given: the % may be the effect or the level left
Plasma [31] = test: Protein binding in rat plasma; assay type: ADME, cell-free
Liver [32] = test: Drug metabolism in human liver microsomes assessed as metabolite E formation in presence of NADPH by UV and mass spectrometry; assay type: ADME, microsome
[33] = molecular target: Muscarinic acetylcholine receptor M5 (Homo sapiens) (UniProt P08912); test: Antagonist activity at human recombinant muscarinic M5 receptor expressed in CHO cells co-transfected with Gqi5 assessed as acetylcholine-induced response in presence of EC80 acetylcholine by calcium mobilization assay relative to untreated control; assay type: functional, cell-based; set-up: scale not given: the % may be the effect or the level left
[34] = molecular target: Muscarinic acetylcholine receptor M1 (Rattus norvegicus, UniProt P08482); test: (§4) Antagonist activity at rat muscarinic M1 receptor by calcium mobilization assay; assay type: functional
Liver [35] = test: Drug metabolism in human liver microsomes assessed as metabolite G formation in presence of NADPH by UV and mass spectrometry; assay type: ADME, microsome
Liver [36] = test: Drug metabolism in rat liver microsomes in absence of NADPH by UV and mass spectrometry; assay type: ADME, microsome
[37] = molecular target: T3, Muscarinic acetylcholine receptor M4 (Homo sapiens) (UniProt P08173); test: Antagonist activity at human recombinant muscarinic M4 receptor expressed in CHO cells co-transfected with Gqi5 assessed as acetylcholine-induced response in presence of EC80 acetylcholine by calcium mobilization assay relative to untreated control; assay type: functional, cell-based; set-up: scale not given: the % may be the effect or the level left
T3 sequence (whole entry): T2 sequence (P08173 whole entry)

[38] = molecular target: Muscarinic acetylcholine receptor M3 (Rattus norvegicus) (UniProt P08483); test: as §1; assay type: functional
[39] = molecular target: T2, Muscarinic acetylcholine receptor M4; test: Displacement of [3H]NMS from human recombinant muscarinic M4 receptor expressed in CHO cell membranes
[40] = molecular target: Muscarinic acetylcholine receptor M4 (Rattus norvegicus) (UniProt P08485); test: as §2; assay type: functional
Plasma [41] = test: Protein binding in rat plasma assessed as unbound fraction; assay type: ADME, cell-free
[42] = Brain to plasma permeability coefficient in rat dosed as cassette dosing; assay type: ADME, organism-based
Brain = test: Protein binding in rat brain homogenate assessed as unbound fraction; assay type: ADME, tissue-based
Plasma [43] = test: Protein binding in human plasma assessed as unbound fraction; assay type: ADME, cell-free
[44] = Unbound brain-to-plasma concentration ratio in rat dosed as cassette dosing; assay type: ADME, organism-based
[45] = molecular target: Muscarinic acetylcholine receptor M2 (Rattus norvegicus) (UniProt P10980); test: as §3; assay type: functional
[46] = molecular target: Muscarinic acetylcholine receptor M1 (Rattus norvegicus) (UniProt P08482); test: as §4; assay type: functional

Muscarinic acetylcholine receptor M3 (Rattus norvegicus), sequence (P08483 whole entry, looked up): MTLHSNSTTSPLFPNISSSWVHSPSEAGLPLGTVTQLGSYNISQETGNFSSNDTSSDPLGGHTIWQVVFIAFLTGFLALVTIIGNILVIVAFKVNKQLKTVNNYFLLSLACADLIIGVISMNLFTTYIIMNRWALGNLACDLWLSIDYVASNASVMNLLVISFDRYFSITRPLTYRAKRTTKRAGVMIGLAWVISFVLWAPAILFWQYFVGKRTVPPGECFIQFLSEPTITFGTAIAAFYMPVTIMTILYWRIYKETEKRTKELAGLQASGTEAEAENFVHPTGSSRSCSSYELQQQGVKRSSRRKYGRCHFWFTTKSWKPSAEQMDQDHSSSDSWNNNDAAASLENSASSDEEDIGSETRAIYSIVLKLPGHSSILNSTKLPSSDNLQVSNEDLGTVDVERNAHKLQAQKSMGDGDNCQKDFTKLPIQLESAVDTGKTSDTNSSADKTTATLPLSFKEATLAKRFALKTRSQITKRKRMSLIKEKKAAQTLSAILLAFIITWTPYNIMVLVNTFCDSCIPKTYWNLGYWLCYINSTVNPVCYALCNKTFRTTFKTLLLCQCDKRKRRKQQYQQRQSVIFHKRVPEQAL
Muscarinic acetylcholine receptor M2 (Homo sapiens, UniProt P08172), sequence (P08172 whole entry): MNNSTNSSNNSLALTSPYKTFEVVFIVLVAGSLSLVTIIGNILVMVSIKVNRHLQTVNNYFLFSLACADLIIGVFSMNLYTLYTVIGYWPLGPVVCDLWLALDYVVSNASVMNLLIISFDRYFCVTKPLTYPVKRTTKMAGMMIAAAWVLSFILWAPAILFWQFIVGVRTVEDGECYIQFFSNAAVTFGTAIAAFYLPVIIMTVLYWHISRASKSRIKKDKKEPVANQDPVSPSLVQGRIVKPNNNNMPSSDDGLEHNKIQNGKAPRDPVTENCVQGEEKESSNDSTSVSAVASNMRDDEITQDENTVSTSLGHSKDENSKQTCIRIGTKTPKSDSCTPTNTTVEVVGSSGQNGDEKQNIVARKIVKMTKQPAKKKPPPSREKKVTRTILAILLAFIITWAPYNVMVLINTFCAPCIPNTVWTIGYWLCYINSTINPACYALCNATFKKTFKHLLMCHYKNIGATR
Muscarinic acetylcholine receptor M2 (Homo sapiens), sequence (P08172 whole entry): as above
Muscarinic acetylcholine receptor M4 (Rattus norvegicus), sequence (P08485 whole entry): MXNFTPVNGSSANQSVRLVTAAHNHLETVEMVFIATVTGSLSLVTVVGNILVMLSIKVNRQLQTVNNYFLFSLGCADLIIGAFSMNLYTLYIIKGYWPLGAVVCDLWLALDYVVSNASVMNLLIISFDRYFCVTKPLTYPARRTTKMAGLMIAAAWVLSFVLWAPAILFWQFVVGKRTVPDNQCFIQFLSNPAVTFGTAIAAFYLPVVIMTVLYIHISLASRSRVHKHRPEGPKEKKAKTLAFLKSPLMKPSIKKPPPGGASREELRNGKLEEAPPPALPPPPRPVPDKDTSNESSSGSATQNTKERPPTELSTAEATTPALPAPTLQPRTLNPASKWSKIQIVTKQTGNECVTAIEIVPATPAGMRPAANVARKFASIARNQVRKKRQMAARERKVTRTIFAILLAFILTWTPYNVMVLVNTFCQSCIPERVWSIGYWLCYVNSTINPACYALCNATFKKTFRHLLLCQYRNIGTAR
Muscarinic acetylcholine receptor M2 (Rattus norvegicus), sequence (P10980 whole entry): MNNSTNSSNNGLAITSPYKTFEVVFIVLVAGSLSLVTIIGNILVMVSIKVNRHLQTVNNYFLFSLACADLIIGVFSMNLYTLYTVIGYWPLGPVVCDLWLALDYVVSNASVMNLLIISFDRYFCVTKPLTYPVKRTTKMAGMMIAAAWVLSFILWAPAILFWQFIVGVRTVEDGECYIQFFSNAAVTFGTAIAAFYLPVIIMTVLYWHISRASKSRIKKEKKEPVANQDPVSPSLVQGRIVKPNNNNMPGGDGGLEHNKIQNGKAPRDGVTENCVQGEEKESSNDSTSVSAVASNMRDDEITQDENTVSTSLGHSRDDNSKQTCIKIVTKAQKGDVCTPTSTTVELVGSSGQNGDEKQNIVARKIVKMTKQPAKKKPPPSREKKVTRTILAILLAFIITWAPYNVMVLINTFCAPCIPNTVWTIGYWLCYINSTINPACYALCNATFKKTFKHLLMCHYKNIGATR
Muscarinic acetylcholine receptor M5 (Homo sapiens), sequence (P08912 whole entry): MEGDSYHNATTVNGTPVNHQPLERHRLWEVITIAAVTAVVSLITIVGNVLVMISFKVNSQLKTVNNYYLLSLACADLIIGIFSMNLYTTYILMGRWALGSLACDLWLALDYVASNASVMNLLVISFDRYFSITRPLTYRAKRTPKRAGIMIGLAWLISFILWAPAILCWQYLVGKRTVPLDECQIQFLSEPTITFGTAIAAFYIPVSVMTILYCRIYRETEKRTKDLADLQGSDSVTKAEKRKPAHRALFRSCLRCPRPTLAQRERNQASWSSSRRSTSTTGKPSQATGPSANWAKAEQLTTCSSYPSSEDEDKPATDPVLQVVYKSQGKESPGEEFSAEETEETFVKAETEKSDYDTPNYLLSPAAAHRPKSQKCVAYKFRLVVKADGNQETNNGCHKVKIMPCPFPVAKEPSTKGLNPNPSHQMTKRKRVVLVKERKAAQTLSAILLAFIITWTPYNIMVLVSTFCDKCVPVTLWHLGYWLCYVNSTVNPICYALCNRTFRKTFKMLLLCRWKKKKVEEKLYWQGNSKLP
Muscarinic acetylcholine receptor M5 (Homo sapiens, UniProt P08912), sequence (P08912 whole entry): as above

## C[C@H]1CCCCN1c1ccc(N2CCN(S(=O)(=O)c3ccccc3Cl)CC2)nn1
Liver [1]
  Drug metabolism: Metabolite_Notdetected
Liver [2]
  Drug metabolism: Metabolite_Detected
Plasma [3]
  PPB: Active
Homo sapiens [4]
  Ratio IC50: 2.7 to 16
Liver [5]
  Drug metabolism: Metabolite_Detected
[6]
  IC50: > 10 µM
Liver [7]
  Drug metabolism: Metabolite_Detected
[8]
  Activity: 2.6%
[9]
  IC50: 7 µM
[10]
  Activity: 4.8%
[11]
  IC50: 1 µM
[12]; read-out: IC50
  IC50: 0.44 µM
[12]; read-out: pIC50 (converted)
  IC50: 0.427 µM
Homo sapiens [13]
  Ratio IC50: 2.7 to 16
[14]
  IC50: 6.5 µM
Homo sapiens [15]
  Ratio IC50: 2.7 to 16
[16]
  Activity: 7.1%
[17]
  Activity: 2.8%
Liver [18]
  Drug metabolism: Metabolite_Detected
Liver [19]
  Drug metabolism: Metabolite_Detected
[20]
  Ratio IC50: 2.7 to 16
Liver [21]
  Drug metabolism: Metabolite_Detected
[22]
  IC50: 1.2 µM
[23]
  Activity: 37%
[24]
  Activity: 2.9%
Liver [25]
  Drug metabolism: Metabolite_Detected
[26]
  Activity: 4.3%
[27]
  IC50: 5.9 µM
[28]
  IC50: 1.3 µM
[29]
  IC50: > 10 µM
[30]
  Activity: 40%
Plasma [31]
  PPB: Active
Liver [32]
  Drug metabolism: Metabolite_Detected
[33]
  Activity: 3.1%
[34]
  IC50: 1.4 µM
Liver [35]
  Drug metabolism: Metabolite_Detected
Liver [36]
  Drug metabolism: Metabolite_Notdetected
[37]
  Activity: 4%

## Cc1noc(C)c1S(=O)(=O)N1CCN(c2ccc(N3CCCC(C)(C)C3)nn2)CC1
[38]
  inhibition: Active
[39]
  Ki: 0.00778 µM
[9]
  IC50: 0.782 µM
[40]
  inhibition: Active
[12]; read-out: IC50
  IC50: 0.12 µM
[12]; read-out: pIC50 (converted)
  IC50: 0.11 µM
Plasma [41]
  Fu: 0.07
[14]
  IC50: 1.03 µM
[42]
  Kp: 2.1
Brain
  Fu: 0.04
[17]
  Activity: 11%
[22]
  IC50: 0.352 µM
[23]
  inhibition: Active
[24]
  Activity: 17%
Plasma [43]
  Fu: 0.08
[26]
  Activity: 55%
[44]
  K(p,uu,brain): 1.1
[45]
  inhibition: Active
[28]
  IC50: 0.288 µM
[33]
  Activity: 43%
[46]
  inhibition: Active
[37]
  Activity: 12%
